According to US12365656B2, “Oxazolidinone compounds and methods of use thereof as antibacterial agents” (priority 2019, dated 2025):
Values after ≈ are worked out from the molar mass of the structure shown. Like-named read-outs stand apart in the source and are kept apart here.

How the values were obtained:
Format in all cases: cell-based
[1] = tested on: mitochondrial protein synthesis in HepG2 cells; experiment: Mitochondrial protein synthesis assay; conditions: Homo sapiens, 96 h, 4 days, COX-1 relative to SDH-A / Janus Green, In Cell ELISA, read-out: MPS IC50
[2] = tested on: Mycobacterium tuberculosis (Mtb-GFP; H37Rv pMSP12::GFP); experiment: microbe, parasite or virus in culture; conditions: Mycobacterium tuberculosis, H37RV, 168 h, pH 6.8, read-out: Mtb Glu MITC95
[3] = tested on: Mycobacterium tuberculosis (Mtb-GFP; H37Rv pMSP12::GFP); experiment: microbe, parasite or virus in culture; conditions: Mycobacterium tuberculosis, H37RV, 168 h, pH 6.8, read-out: Mtb Cho MITC95

SMILES	IC50 [1]	MIC [2]	MIC [3]
O=C1O[C@@H](CO)CN1c1ccc(-c2ccc(S(=O)(=O)N3CCC3)cc2)c(F)c1 [Example 38, (5R)-3-[4′-(azetidine-1-sulfonyl)-2-fluoro[1,1′-biphenyl]-4-yl]-5-(hydroxymethyl)-1,3-oxazolidin-2-one]	> 13 µM	6.3 µM (≈ 2.56 µg/mL)	6.3 µM (≈ 2.56 µg/mL)
CS(=O)(=O)Cc1ccc(-c2ccc(N3C[C@H](CO)OC3=O)cc2F)cc1 [Example 39]	1.5 µM	1.6 µM (≈ 0.607 µg/mL)	1.2 µM (≈ 0.455 µg/mL)
CC1(c2c(F)cc(N3C[C@H](CO)OC3=O)cc2F)CCS(=O)(=O)CC1 [Example 41, 4-{2,6-difluoro-4-[(5R)-5-(hydroxymethyl)-2-oxo-1,3-oxazolidin-3-yl]phenyl}-4-methyl-lλ^6-thiane-1,1-dione]	> 100 µM	6.3 µM (≈ 2.36 µg/mL)	9.4 µM (≈ 3.53 µg/mL)
CC(=O)NC[C@H]1CN(c2ccc(N3CCOCC3)c(F)c2)C(=O)O1 [linezolid, reference compound]	8 µM	4.58 µM (≈ 1.55 µg/mL)	3.14 µM (≈ 1.06 µg/mL)
